Patent US20260021046A1, “LIPID NANOPARTICLE AND PHARMACEUTICAL COMPOSITION” (NATIONAL UNIVERSITY CORPORATION HOKKAIDO UNIVERSITY, priority 2022, published 2026)

Test system: hepatic stellate cells
Assay: In vivo mRNA delivery to hepatic stellate cells in TAA-induced liver fibrosis model mice
Conditions: 24 hours
Method: Thioacetamide (TAA (TCI, Japan))-induced liver fibrosis models were generated in 4-week-old male BALB/c mise (Sankyo laboratories, Japan). Specifically, TAA dissolved in saline was injected intraperitoneally at an amount of 200 mg/kg of TAA per kg of body weight. This was repeated every 3 days for a total of 10 times. The livers of the liver fibrosis model mice were examined by histopathology and hydroxyproline quantitative assay (Cell Biolabs Inc, USA), and the activation of hepatic stellate cells (HSCs) was confirmed by quantitative real-time polymerase chain reaction (qRT-PCR).
The lipid nanoparticles prepared by using CL15A6 encapsulated the above-described EGFP mRNA or firefly luciferase (FLuc) mRNA (TriLink BioTechnologies, USA), and the lipid nanoparticles were administered intravenously to mice via the tail vein so that the amount of RNA per kg of body weight was 1 mg/kg. Twenty-four hours after the administration, hepatic stellate cells and hepatocytes were collected from the livers of the mice as described in NPL 15. For EGFP mRNA, FACS was used to evaluate delivery efficiency and transfection efficiency, and for FLuc mRNA, the luciferase assay was used to evaluate delivery efficiency as described in NPL 16. • [NPL 15] Ingmar Mederacke, et al., “High-yield and high-purity isolation of hepatic stellate cells from normal and fibrotic mouse livers”, Nature Protocols, Vol. 10, pp. 305-315 • [NPL 16] Ikramy A. Khalil, et al., “Synergism between a cell penetrating peptide and a pH-sensitive cationic lipid in efficient gene delivery based on double-coated nanoparticles”, Journal of Controlled Release, Vol. 275, pp. 107-116
First, the microchannel device (iLiNP device) was operated under different conditions to prepare lipid nanoparticles with different average particle sizes. Specifically, lipid nanoparticles with an average particle size of more than 150 nm (e.g., 180 nm), lipid nanoparticles with an average particle size of 100 to 150 nm (e.g., 130 nm), and lipid nanoparticles with an average particle size of less than 100 nm (e.g., 90 nm) were prepared. The prepared lipid nanoparticles were administered intravenously to mice with liver fibrosis, and the mRNA delivery efficiency and transfection efficiency with respect to hepatic stellate cells and hepatocytes were evaluated 24 hours later.
Next, lipid nanoparticles with different nitrogen/phosphate (N/P) ratios were prepared by mixing a lipid composition containing CL15A6 with mRNA at different ratios. Specifically, lipid nanoparticles with N/P ratios of 4, 8, 12, 16, and 20 were prepared. The prepared lipid nanoparticles were intravenously administered to mice with liver fibrosis, and the mRNA delivery efficiency and transfection efficiency with respect to hepatic stellate cells and hepatocytes were evaluated 24 hours later.
Next, lipid nanoparticles containing different types of helper phospholipids were prepared by changing the type of helper phospholipid in the lipid composition containing CL15A6. As the unsaturated phosphatidylethanolamine, 1,2-dioleoyl-sn-glycero-3-phosphoethanolamine (DOPE) was used. As the unsaturated phosphatidylcholine, 1,2-dioleoyl-sn-glycero-3-phosphocholine (DOPC) was used. As the saturated phospholipid, 1,2-distearoyl-sn-glycero-3-phosphocholine (DSPC) was used. The prepared lipid nanoparticles were intravenously administered to mice with liver fibrosis, and the mRNA delivery efficiency and transfection efficiency with respect to hepatic stellate cells and hepatocytes were evaluated 24 hours later.
Next, lipid nanoparticles containing helper phospholipid (DOPE) at different molar percentages were prepared by changing the molar ratio of the helper phospholipid (DOPE). The prepared lipid nanoparticles were intravenously administered to mice with liver fibrosis, and the mRNA delivery efficiency and transfection efficiency with respect to hepatic stellate cells and hepatocytes were evaluated 24 hours later. […]

[1] = CL15A6 lipid nanoparticles iv, DMG-PEG2K 3 to 5 mol %
[2] = CL15A6 lipid nanoparticles, 1 mg/kg RNA iv, when particle size was reduced (>150 nm, 100 to 150 nm, <100 nm)

CCCCC/C=C\C/C=C\CCCCCCCCC(O)(CCCCCCCC/C=C\C/C=C\CCCCC)CCCCOC(=O)C1CCN(C)CC1 [CL15A6, (14z,17z)-5-hydroxy-5-((9z,12z)-octadeca-9,12-dien-1-yl)tricosa-14,17-dien-1-yl 1-methylpiperidine-4-carboxylate]
mRNA delivery efficiency (CL15A6 lipid nanoparticles iv, DMG-PEG2K 1.5 mol %): decreased | efficiency of mRNA delivery to hepatic stellate cells [1]: high | hepatic stellate cells transfected in vivo [1]: ≥ 80% | delivery of mRNA to hepatic stellate cells (CL15A6 lipid nanoparticles iv, DOPE 20 to 30 mol %): significantly improved | delivery of mRNA to hepatic stellate cells (CL15A6 lipid nanoparticles iv, DOPE 40 mol %): reduced | delivery of mRNA to hepatic stellate cells (CL15A6 lipid nanoparticles iv, N/P ratio increased from 4 to 8): significantly improved | mRNA delivery efficiency (CL15A6 lipid nanoparticles iv, N/P ratio increased from 16 to 20): decreased | mRNA delivery to hepatic stellate cells (CL15A6 lipid nanoparticles iv, helper phospholipid DOPE compared to DOPC and DSPC): significantly improved | mRNA delivery efficiency to hepatic stellate cells [2]: linearly improved | transfection efficiency of hepatic stellate cells [2]: linearly improved
